Data set [1] concerns Normal mice. Kind of data set: Test 1: hypolipidemic activity in normal mice. The data set is classed as in vivo, ICR type male mice. As to conditions: Mus musculus, 24 h, Table 4, reference compounds (IV), 1 time adm.
A short description of data set [2]: Test 3: acute toxicity. As to conditions: mouse, in vivo. On the procedure: In the acute toxicity tests, male mice (weight: 22 to 25 g) were used in groups of 10 each.
Eash active ingredient was dissolved in olive oil and the solution was orally administrated in a volume corresponding to the body weight.
LD50 was calculated by the area method from the mortal percent after 72 hours from the administration.
The compound numbers are the same with those of Tables 1 and 2.

The conditions of data set [3]: found by the administration of ethyl-α-(p-chlorophenoxy)-isobutyrate; cited from earlier work.
The subject of data set [4] is Normal mice. Kind of data set: Test 1: hypolipidemic activity in normal mice. It counts as in vivo, ICR type male mice. As to conditions: 200 mg/kg oral, 1 time adm., 24 h. On the procedure:
The hypolipidemic activity in normal mice (lowering effect of normal blood lipid level).
In the tests, ICR type male mice (weight: about 35 g) were used in groups of 6 each.
Each active ingredient was suspended in a 1% aqueous solution of Tween-80 (polyoxyethylene sorbitane monoalkylate) (Atlas Co.) and the suspension was orally administrated in a dose of 200 mg/Kg.
After 24 hours from the administration, blood was sampled and the concentration of total cholesterols in blood-plasma was measured by the method described in Clinical chemistry Vol. 22 page 393 (1968) and the concentraton of triglyceride (neutral fat) was measured by Fletcher method (Clinica Chimica Acta) Vol. 10 page 451 (1964).
As the active ingredients, the compounds (I) and ethyl-α-(p-chlorophenoxy)-isobutylate having the formula [drawing 17] were used.
The same tests for hypolipidemic activity (lowering of blood lipid level) were carried out by using the reference compounds (IV).

The test system of data set [5] is Rats with hyperlipidemia. Kind of data set: Test 2: antihyperlipidemic activity in rats with dietary hyperlipidemia. The data set is classed as in vivo, Wister type male rats. As to conditions: 200 mg/kg oral, 4 days adm. On the procedure: The antihyperlipidemic activity in rats with dietary hyperlipidemia.
In the tests, Wister type male rats (weight: 140 g) were used in groups of 6 each.
A feed containing 2% of cholesterol, 1% of sodium cholate and 5% of cocconut oil was given for 4 days to cause hyperlipidemia.
Each active ingredient was suspended in a 1% aqueous solution of Tween 80 and the suspension was orally administrated in a dose of 100 mg/Kg or 200 mg/Kg once daily for 4 days starting with the supply of the cholesterol supplemented diet.
After 24 hours from the final administration, blood was sampled and the concentration of total cholesterols and the concentration of triglyceride were measured by the methods of Test 1.

Setting [6] is: read-out: Total cholesterol (lowering of blood lipid level).
Setting [7] is: read-out: Triglyceride (lowering of blood lipid level).
[8] abbreviates: Table 3, male mice, oral in olive oil, 72 hours, read-out: LD50 oral.
Where [9] appears, read: series (a), comparison with compound 1 (Normal 62.6).
Where [10] appears, read: series (a), comparison with compound 1 (Normal 83.6).
[11] abbreviates: series (b), comparison with compounds 2-12 (Normal 52.0).
Setting [12] is: series (b), comparison with compounds 2-12 (Normal 69.3).
The mark [13] stands for this setting: series (a), comparison with compound 1 (P-control 141.9).
[14] abbreviates: series (a), comparison with compound 1 (P-control 302.4).
Setting [15] is: series (b), comparison with compounds 2-12 (P-control 92.0, Normal 37.6).
[16] abbreviates: series (b), comparison with compounds 2-12 (P-control 260.0, Normal 57.2).
Where [17] appears, read: po, Table 4, reference compounds (IV), read-out: LD50.

Like-named read-outs stand apart in the source and are kept apart here.

The term LD50 denotes the dose at which mortality reaches 50%. Consider `CCOC(=O)C(C)(C)Oc1ccc(Cl)cc1` [***, ethyl-α-(p-chlorophenoxy)-isobutylate, reference compound], for which the inhibition in vivo at 200 mg/kg is 15% in data set [1] (setting [6]) and 10% in data set [1] (setting [7]). Moreover, the LD50 at 72 h in data set [2] (setting [8]) turned out to be 1500 mg/kg. In data set [3], the “hepatic disease (hepatitis)” value is recorded as “found”. The Decrease of triglyceride in data set [4] (setting [9]) came to 46.6 ± 7.3 mg/dL; in data set [4] (setting [11]), 46.8 ± 3.5 mg/dL; in data set [5] (setting [13]) it was 80.9 ± 17.8 mg/dL; in data set [5] (setting [15]), 62.5 ± 9.5 mg/dL. The Decrease of cholesterol in data set [4] (setting [10]) stood at 69.0 ± 5.3 mg/dL; in data set [4] (setting [12]) it was 55.4 ± 3.1 mg/dL. In addition, the “Serum total cholesterol concentration” value stood at 285.5 ± 25.3 mg/dL in data set [5] (setting [14]) and 258.5 ± 16.0 mg/dL in data set [5] (setting [16]).

As for `CCOC(=O)C(Oc1ccc(C(=O)c2ccc(Cl)cc2)cc1)C1CCCCC1` (centres unmarked) [Invention Compound 1, Ethyl 2-[p-(4-chlorobenzoyl)-phenoxy]-cyclohexyl acetate], in data set [2] (setting [8]), the LD50 at 72 h was 2500 mg/kg. For the same compound, the Decrease of triglyceride was 52.2 ± 7.6 mg/dL in data set [4] (setting [9]) and 69.7 ± 13.8 mg/dL in data set [5] (setting [13]). Also, in data set [4] (setting [10]), the Decrease of cholesterol was determined as 59.4 ± 4.8 mg/dL. In addition, the “Serum total cholesterol concentration” value in data set [5] (setting [14]) was 126.5 ± 8.1 mg/dL.

Take `CCOC(=O)C(Oc1ccc(C(=O)c2ccc(F)cc2)cc1)C1CCCCC1` (centres unmarked) [Invention Compound 2, Ethyl-2-[p-(4-fluorobenzoyl)-phenoxy]-cyclohexyl acetate]: in data set [2] (setting [8]), the LD50 at 72 h was 1000 mg/kg. Further, the Decrease of triglyceride in data set [5] (setting [15]) came to 88.5 ± 12.3 mg/dL. For the same compound, the “Serum total cholesterol concentration” value in data set [5] (setting [16]) came to 215.3 ± 6.7 mg/dL.

On to `CCOC(=O)C(Oc1ccc(C(=O)c2ccccc2)cc1)C1CCCCC1` (centres unmarked) [Invention Compound 3], for which the 50% lethal dose (LD50) at 72 h in data set [2] (setting [8]) stood at 1000 mg/kg. Besides, the Decrease of triglyceride was 60.1 ± 2.8 mg/dL in data set [4] (setting [11]) and 81.6 ± 7.3 mg/dL in data set [5] (setting [15]). In addition, in data set [4] (setting [12]), the Decrease of cholesterol is 66.6 ± 1.9 mg/dL. In addition, in data set [5] (setting [16]), the “Serum total cholesterol concentration” value was 211.0 ± 5.5 mg/dL.

Take `CCOC(=O)C(Oc1ccc(C(=O)c2ccc(OC)cc2)cc1)C1CCCCC1` (centres unmarked) [Invention Compound 4]: the median lethal dose (LD50) at 72 h in data set [2] (setting [8]) is 2500 mg/kg. In addition, the figures for the Decrease of triglyceride in data set [4] (setting [11]) and in data set [5] (setting [15]) were 38.2 ± 2.5 mg/dL and 88.7 ± 8.9 mg/dL, respectively. Besides, the Decrease of cholesterol in data set [4] (setting [12]) was found to be 51.9 ± 2.6 mg/dL. Also, the “Serum total cholesterol concentration” value in data set [5] (setting [16]) was 187.0 ± 18.1 mg/dL.

`CCOC(=O)C(Oc1ccc(C(=O)c2cccc(F)c2)cc1)C1CCCCC1` (centres unmarked) [Invention Compound 5]: the LD50 at 72 h in data set [2] (setting [8]) came to 3500 mg/kg. Also, the figures for the Decrease of triglyceride in data set [4] (setting [11]) and in data set [5] (setting [15]) were 60.0 ± 4.2 mg/dL and 90.3 ± 16.8 mg/dL, respectively. Moreover, the Decrease of cholesterol in data set [4] (setting [12]) stood at 54.5 ± 2.6 mg/dL. Moreover, in data set [5] (setting [16]), the “Serum total cholesterol concentration” value amounted to 147.5 ± 8.3 mg/dL.

Consider `CCOC(=O)C(Oc1ccc(C(=O)c2ccccc2F)cc1)C1CCCCC1` (centres unmarked) [Invention Compound 6], for which, in data set [2] (setting [8]), the LD50 at 72 h is 1000 mg/kg. The Decrease of triglyceride in data set [5] (setting [15]) stood at 89.2 ± 15.6 mg/dL. Further, the “Serum total cholesterol concentration” value in data set [5] (setting [16]) is 243.0 ± 6.1 mg/dL.

In the case of `CCOC(=O)C(Oc1ccc(C(=O)c2cccc(Cl)c2)cc1)C1CCCCC1` (centres unmarked) [Invention Compound 7, Ethyl 2-[p-(3-chlorobenzoyl)-phenoxy]-cyclohexyl acetate], the LD50 at 72 h in data set [2] (setting [8]) was 2500 mg/kg. Further, the Decrease of triglyceride was found to be 45.5 ± 5.4 mg/dL in data set [4] (setting [11]) and 52.1 ± 9.0 mg/dL in data set [5] (setting [15]). For the same compound, the Decrease of cholesterol in data set [4] (setting [12]) amounted to 56.4 ± 5.1 mg/dL. Besides, in data set [5] (setting [16]), the “Serum total cholesterol concentration” value stood at 123.8 ± 9.1 mg/dL.

Consider `CCOC(=O)C(Oc1ccc(C(=O)c2ccccc2Cl)cc1)C1CCCCC1` (centres unmarked) [Invention Compound 8], for which the LD50 at 72 h in data set [2] (setting [8]) came out at 1000 mg/kg. The Decrease of triglyceride in data set [5] (setting [15]) came out at 75.6 ± 8.3 mg/dL. In addition, the “Serum total cholesterol concentration” value in data set [5] (setting [16]) was 185.4 ± 7.1 mg/dL.

With `CCOC(=O)C(Oc1ccc(C(=O)c2ccc(C)cc2)cc1)C1CCCCC1` (centres unmarked) [Invention Compound 9, Ethyl 2-[p-(4-methylbenzoyl)-phenoxy]-cyclohexyl acetate], the LD50 at 72 h in data set [2] (setting [8]) was determined as 3500 mg/kg. The Decrease of triglyceride in data set [4] (setting [11]) was 56.9 ± 6.1 mg/dL; in data set [5] (setting [15]), 58.5 ± 6.7 mg/dL. In addition, the Decrease of cholesterol in data set [4] (setting [12]) worked out at 59.1 ± 3.4 mg/dL. In addition, in data set [5] (setting [16]), the “Serum total cholesterol concentration” value came out at 188.7 ± 18.4 mg/dL.

Take `CCOC(=O)C(Oc1ccc(C(=O)c2cccc(C)c2)cc1)C1CCCCC1` (centres unmarked) [Invention Compound 10]: in data set [2] (setting [8]), the LD50 at 72 h was determined as 3000 mg/kg. Besides, in data set [5] (setting [15]), the Decrease of triglyceride was found to be 73.6 ± 10.0 mg/dL. Also, the “Serum total cholesterol concentration” value in data set [5] (setting [16]) was 196.1 ± 13.2 mg/dL.

Regarding `CCOC(=O)C(Oc1ccc(C(=O)c2ccccc2C)cc1)C1CCCCC1` (centres unmarked) [Invention Compound 11], the LD50 at 72 h in data set [2] (setting [8]) was found to be 700 mg/kg. The Decrease of triglyceride in data set [5] (setting [15]) turned out to be 89.4 ± 7.7 mg/dL. Also, the “Serum total cholesterol concentration” value in data set [5] (setting [16]) worked out at 203.5 ± 12.1 mg/dL.

With `CCOC(=O)C(Oc1ccc(C(=O)c2ccccc2F)cc1)c1ccccc1` (centres unmarked) [compound 1], the inhibition in vivo at 200 mg/kg in data set [1] (setting [6]) turned out to be 18%; in data set [1] (setting [7]), 36%. For the same compound, the LD50 at 72 h in data set [2] (setting [17]) worked out at 1500 mg/kg.

As for `CCOC(=O)C(Oc1ccc(C(=O)c2cccc(F)c2)cc1)c1ccccc1` (centres unmarked) [compound 3], the figures for the inhibition in vivo at 200 mg/kg in data set [1] (setting [6]) and in data set [1] (setting [7]) were 16% and 19%, respectively. Further, in data set [2] (setting [17]), the LD50 at 72 h was determined as 2000 mg/kg.

With `CCOC(=O)C(Oc1ccc(C(=O)c2ccc(F)cc2)cc1)c1ccccc1` (centres unmarked) [compound 5], the inhibition in vivo at 200 mg/kg in data set [1] (setting [6]) was 21%; in data set [1] (setting [7]), 1%. Besides, in data set [2] (setting [17]), the LD50 at 72 h turned out to be 1500 mg/kg.

Take `CCOC(=O)C(Oc1ccc(C(=O)c2ccccc2Cl)cc1)c1ccccc1` (centres unmarked) [compound 7, Ethyl 2-[p-(2-chlorobenzoyl)-phenoxy]phenyl acetate]: the inhibition in vivo at 200 mg/kg in data set [1] (setting [6]) was 16%; in data set [1] (setting [7]) it was 8%. Besides, the LD50 at 72 h in data set [2] (setting [17]) is greater than 10000 mg/kg.

Turning to `CCOC(=O)C(Oc1ccc(C(=O)c2ccc(Cl)cc2)cc1)c1ccccc1` (centres unmarked) [compound 11, Ethyl 2-[p-(4-chlorobenzoyl)-phenoxy]phenyl acetate], the inhibition in vivo at 200 mg/kg in data set [1] (setting [6]) came out at 24%; in data set [1] (setting [7]), 52%. Further, the LD50 at 72 h in data set [2] (setting [17]) was 3000 mg/kg.

With `CCOC(=O)C(Oc1ccc(C(=O)c2ccccc2C)cc1)c1ccccc1` (centres unmarked) [compound 13, ethyl 2-[p-(2-methylbenzoyl)-phenoxy] phenyl acetate], the inhibition in vivo at 200 mg/kg in data set [1] (setting [6]) stood at 27.7%; in data set [1] (setting [7]), 41.9%. Also, the LD50 at 72 h in data set [2] (setting [17]) was greater than 2000 mg/kg.

In the case of `Cc1ccccc1C(=O)c1ccc(OC(C(=O)O)c2ccccc2)cc1` (centres unmarked) [compound 14, 2-[P-(2-methylbenzoyl)-phenoxy]phenyl acetic acid], the values for the inhibition in vivo at 200 mg/kg in data set [1] (setting [6]) and in data set [1] (setting [7]) were 21% and 2%, respectively.

For the compound `O=C(c1ccccc1)c1ccc(OC(C(=O)O)c2ccccc2)cc1` (centres unmarked) [compound 20], the values for the inhibition in vivo at 200 mg/kg in data set [1] (setting [6]) and in data set [1] (setting [7]) were 19% and 7%, respectively. For the same compound, the LD50 at 72 h in data set [2] (setting [17]) was greater than 3000 mg/kg.

These data come from patent US4153724A, “Benzoyl phenoxy acetic acid derivatives” (Kaken Chemical Co., Ltd., priority 1976, dated 1979).
